Active and inactive are the calls of the source. No cut-off for these calls is given here. Where a SMILES comes first, the peptide text is derived from it. [ ]: non-standard residue; d: D form. Orn = NCCC[C@H](N)C(=O)O

The target in one experiment is Aac(6')-Ii protein (Enterococcus faecium, UniProt Q47764). The experiment can be described thus: Inhibition of Enterococcus faecium AAC(6')-li.
Experiment [1] in a line: Inhibition of AAC(6')-li (unknown origin).
Experiment [2] can be described thus: Inhibition of AAC(6')-le (unknown origin).
Experiment [3] can be described thus: Activity at AAC(6')-li (unknown origin).

Chain of Aac(6')-Ii protein (Q47764 whole entry): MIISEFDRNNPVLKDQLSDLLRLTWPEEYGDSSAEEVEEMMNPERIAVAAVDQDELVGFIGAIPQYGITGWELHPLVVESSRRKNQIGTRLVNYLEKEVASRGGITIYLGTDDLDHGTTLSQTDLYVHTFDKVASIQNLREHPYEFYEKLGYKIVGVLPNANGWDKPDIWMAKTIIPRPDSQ

With `CC(C)(CO)[C@@H](O)C(=O)NCCC(=O)NCCSCCCC(=O)NC[C@H]1O[C@H](O[C@H]2[C@H](O)[C@@H](O)[C@H](N)C[C@@H]2N)[C@H](N)[C@@H](O)[C@@H]1O`, the Ki at Aac(6')-Ii protein is no less than 500 µM. As to H-KWKKFIKSLTKAAKTVVKTAKKPLIV-OH, 24 µM corresponded to half-maximal inhibition in experiment [1] (IC50). Moreover, in experiment [2], the inhibition entry is “inactive”. `CC(C)(COP(=O)(O)OP(=O)(O)OC[C@H]1O[C@@H](n2cnc3c(N)ncnc32)[C@H](O)[C@@H]1OP(=O)(O)O)[C@@H](O)C(=O)NCCC(=O)NCCSCCC(=O)NC[C@H]1O[C@H](O[C@H]2[C@H](O)[C@@H](O)[C@H](N)C[C@@H]2N)[C@H](N)[C@@H](O)[C@@H]1O`: the Ki in experiment [1] came out at 0.043 µM. Turning to `CC(C)(CO)[C@@H](O)C(=O)NCCC(=O)NCCSCCC(=O)NC[C@H]1O[C@H](O[C@H]2[C@H](O)[C@@H](O)[C@H](N)C[C@@H]2N)[C@H](N)[C@@H](O)[C@@H]1O`, on Aac(6')-Ii protein, the Ki was no less than 500 µM.

In the case of `CC(C)C[C@@H]1NC(=O)[C@H](CCCN)NC(=O)[C@H](C(C)C)NC(=O)[C@@H]2CCCN2C(=O)[C@@H](Cc2ccccc2)NC(=O)[C@H](CC(C)C)NC(=O)[C@H](CCCN)NC(=O)[C@H](C(C)C)NC(=O)[C@@H]2CCCN2C(=O)[C@@H](Cc2ccccc2)NC1=O` [GRAMICIDIN S] (cyclo(L[dF]PV[Orn]L[dF]PV[Orn])), the inhibition result in experiment [1] is “inactive”. Further, the IC50 in experiment [2] was found to be 14 µM.

Compound `CC(C)(COP(=O)(O)OP(=O)(O)OC[C@H]1O[C@@H](n2cnc3c(N)ncnc32)[C@H](O)[C@@H]1OP(=O)(O)O)[C@@H](O)C(=O)NCCC(=O)NCCSCCCC(=O)NC[C@H]1O[C@H](O[C@H]2[C@H](O)[C@@H](O)[C@H](N)C[C@@H]2N)[C@H](N)[C@@H](O)[C@@H]1O` returned a Ki in experiment [1] of 0.161 µM. For `N[C@H]1[C@@H](O[C@H]2[C@H](O)[C@@H](O)[C@H](N)C[C@@H]2N)O[C@H](CNC(=O)CO)[C@@H](O)[C@@H]1O`, in experiment [3], the Km was greater than 500 µM. As for H-ILAWKWAWWAWRR-OH, 4.4 µM corresponded to half-maximal inhibition in experiment [1] (IC50). The inhibition result in experiment [2] is “inactive”. On Aac(6')-Ii protein, `CC(=O)CC(=O)N(CCc1ccccc1)CC(C)(C)[C@@H](O)C(=O)NCCC(=O)NCCSCC(=O)NC[C@H]1O[C@H](O[C@H]2[C@H](O)[C@@H](O)[C@H](N)C[C@@H]2N)[C@H](N)[C@@H](O)[C@@H]1O` gave a Ki of no less than 200 µM.

In experiment [1], `CC(C)(COP(=O)(O)OP(=O)(O)OC[C@H]1O[C@@H](n2cnc3c(N)ncnc32)[C@H](O)[C@@H]1OP(=O)(O)O)[C@@H](O)C(=O)NCCC(=O)NCCSCCCCCC(=O)NC[C@H]1O[C@H](O[C@H]2[C@H](O)[C@@H](O)[C@H](N)C[C@@H]2N)[C@H](N)[C@@H](O)[C@@H]1O` had a Ki of 5.2 µM. Turning to H-KWKSFIKKLTSAAKKVTTAAKPLTK-OH, in experiment [1], the inhibition entry was “inactive”. This compound also came in with an IC50 in experiment [2] of 38 µM. With `CC(C)(CO)[C@@H](O)C(=O)NCCC(=O)NCCSCCCCCC(=O)NC[C@H]1O[C@H](O[C@H]2[C@H](O)[C@@H](O)[C@H](N)C[C@@H]2N)[C@H](N)[C@@H](O)[C@@H]1O`, the Ki on Aac(6')-Ii protein was no less than 500 µM. In the case of `CC(=O)CC(=O)N(CCCc1ccccc1)CC(C)(C)[C@@H](O)C(=O)NCCC(=O)NCCSCC(=O)NC[C@H]1O[C@H](O[C@H]2[C@H](O)[C@@H](O)[C@H](N)C[C@@H]2N)[C@H](N)[C@@H](O)[C@@H]1O`, the Ki on Aac(6')-Ii protein is no less than 200 µM. In the case of `CC(C)C[C@H](NC(=O)[C@H](CCCNC(=N)N)NC(=O)CNC(=O)CNC(=O)[C@@H](N)CCCNC(=N)N)C(=O)N[C@@H](CS)C(=O)N[C@@H](Cc1ccc(O)cc1)C(=O)N[C@@H](CS)C(=O)N[C@@H](CCCNC(=N)N)C(=O)N[C@@H](CCCNC(=N)N)C(=O)N[C@@H](CCCNC(=N)N)C(=O)N[C@@H](Cc1ccccc1)C(=O)N[C@@H](CS)C(=O)N[C@H](C(=O)N[C@@H](CS)C(=O)N[C@H](C(=O)NCC(=O)N[C@@H](CCCNC(=N)N)C(=O)O)C(C)C)C(C)C` (H-RGGRLCYCRRRFCVCVGR-OH), the inhibition result in experiment [1] and in experiment [2] was “inactive” throughout. In the case of `CC(C)(COC(=O)CCC(=O)O)[C@@H](O)C(=O)NCCC(=O)NCCSCC(=O)NC[C@H]1O[C@H](O[C@H]2[C@H](O)[C@@H](O)[C@H](N)C[C@@H]2N)[C@H](N)[C@@H](O)[C@@H]1O`, the Ki on Aac(6')-Ii protein was no less than 1000 µM. In turn, `CC(C)(COP(=O)(O)OP(=O)(O)OC[C@H]1O[C@@H](n2cnc3c(N)ncnc32)[C@H](O)[C@@H]1OP(=O)(O)O)[C@@H](O)C(=O)NCCC(=O)NCCSCCCCC(=O)NC[C@H]1O[C@H](O[C@H]2[C@H](O)[C@@H](O)[C@H](N)C[C@@H]2N)[C@H](N)[C@@H](O)[C@@H]1O` had a Ki in experiment [1] of 8 µM. `CC(=O)CC(=O)NCC(C)(C)[C@@H](O)C(=O)NCCC(=O)NCCSCC(=O)NC[C@H]1O[C@H](O[C@H]2[C@H](O)[C@@H](O)[C@H](N)C[C@@H]2N)[C@H](N)[C@@H](O)[C@@H]1O`: on Aac(6')-Ii protein, the Ki was no less than 200 µM. `CC(C)(COP(=O)(O)OP(=O)(O)OC[C@H]1O[C@@H](n2cnc3c(N)ncnc32)[C@H](O)[C@@H]1OP(=O)(O)O)[C@@H](O)C(=O)NCCC(=O)NCCSCC(=O)NC[C@H]1O[C@H](O[C@H]2[C@H](O)[C@@H](O)[C@H](N)C[C@@H]2N)[C@H](N)[C@@H](O)[C@@H]1O` showed a Ki in experiment [1] of 0.076 µM. The compound `CC(C)(CO)[C@@H](O)C(=O)NCCC(=O)NCCSCC(=O)NC[C@H]1O[C@H](O[C@H]2[C@H](O)[C@@H](O)[C@H](N)C[C@@H]2N)[C@H](N)[C@@H](O)[C@@H]1O` registered an inhibitory constant (Ki) on Aac(6')-Ii protein of no less than 500 µM. For the compound `NCC(=O)NC[C@H]1O[C@H](O[C@H]2[C@H](O)[C@@H](O)[C@H](N)C[C@@H]2N)[C@H](N)[C@@H](O)[C@@H]1O`, the Km in experiment [3] was greater than 500 µM. As for `CC[C@H](C)[C@H](N)C(=O)N[C@@H](CC(C)C)C(=O)N1CCC[C@H]1C(=O)N[C@@H](Cc1c[nH]c2ccccc12)C(=O)N[C@@H](CCCCN)C(=O)N[C@@H](Cc1c[nH]c2ccccc12)C(=O)N1CCC[C@H]1C(=O)N[C@@H](Cc1c[nH]c2ccccc12)C(=O)N[C@@H](Cc1c[nH]c2ccccc12)C(=O)N1CCC[C@H]1C(=O)N[C@@H](Cc1c[nH]c2ccccc12)C(=O)N[C@@H](CCCN=C(N)N)C(=O)N[C@@H](CCCN=C(N)N)C(N)=O`, the IC50 in experiment [1] was 13 µM. For the same compound, the inhibition result in experiment [2] is “inactive”. `CC(C)(CO)[C@@H](O)C(=O)NCCC(=O)NCCSCCCCC(=O)NC[C@H]1O[C@H](O[C@H]2[C@H](O)[C@@H](O)[C@H](N)C[C@@H]2N)[C@H](N)[C@@H](O)[C@@H]1O`: the Ki at Aac(6')-Ii protein was no less than 500 µM. On to H-ILKKWPWWPWRRK-OH, for which inhibition in experiment [1] was half-maximal at 23 µM (IC50). Besides, in experiment [2], the inhibition result is “inactive”.

For the compound `CC(=O)CC(=O)N(Cc1ccccc1)CC(C)(C)[C@@H](O)C(=O)NCCC(=O)NCCSCC(=O)NC[C@H]1O[C@H](O[C@H]2[C@H](O)[C@@H](O)[C@H](N)C[C@@H]2N)[C@H](N)[C@@H](O)[C@@H]1O`, on Aac(6')-Ii protein, the Ki is no less than 200 µM. For the compound `CC[C@H](C)[C@H](NC(=O)[C@H](CC(C)C)NC(=O)[C@H](C)NC(=O)[C@@H]1CCCN1C(=O)[C@H](CC(C)C)NC(=O)CNC(=O)[C@@H](NC(=O)[C@@H](NC(=O)[C@H](CC(C)C)NC(=O)[C@@H](NC(=O)[C@H](CCCCN)NC(=O)[C@H](CCCCN)NC(=O)[C@@H](NC(=O)[C@H](C)NC(=O)[C@@H](NC(=O)[C@@H](NC(=O)[C@H](CC(C)C)NC(=O)[C@H](CCCCN)NC(=O)[C@H](CCCCN)NC(=O)[C@@H](NC(=O)[C@H](Cc1ccccc1)NC(=O)[C@H](CO)NC(=O)[C@H](CCCCN)NC(=O)[C@H](Cc1c[nH]c2ccccc12)NC(=O)[C@@H](N)CCCCN)[C@@H](C)CC)[C@@H](C)O)[C@@H](C)O)C(C)C)C(C)C)[C@@H](C)O)[C@@H](C)O)C(=O)N[C@@H](CO)C(=O)O`, the inhibition result in experiment [1] is “inactive”. In experiment [2], half-maximal inhibition (IC50) was put at 21 µM.

Usually Ki stands for the equilibrium dissociation constant of an inhibitor or competing ligand from its target. A high value points to a looser hold on the target. For orientation: IC50 means the concentration that gives 50% inhibition. Read a high IC50 as lower potency. By Km is commonly meant the concentration of substrate that gives half-maximal velocity.
